Patent publication US20230416191A1, “Compounds, Compositions and Methods for the Treatment of CREB-dependent Diseases” (Sereno Sciences, Inc., priority 2022, published 2023)
Read-outs that look alike come from different tables or passages of the source. Blank lines part the entries; values can stand above or below the compound they belong to.

Experiments:
[1] = test system: CREB-mediated gene transcription; experiment: Inhibition of CREB-mediated gene transcription (CRE Renilla luciferase reporter, forskolin stimulated); format: cell-based; details: 5 h, HEK293T CRE luciferase reporter cells, forskolin 10 uM
Method: The compounds were tested for their inhibition of CREB-mediated gene transcription according to the method described in Xie et al. J. Med. Chem. 2015, 58, 5075-5087. Generally, HEK293T cell transfected with luciferase reporter cell lines under CRE control were obtained from commercial sources. The cells were plated into 96-well plates (1-[…] cells/well). The cells were allowed to attach to the bottom of the wells overnight, when compounds of different concentrations were added to the cells. Forskolin (10 uM, LC Laboratories, Woburn, Mass.) was added 30 min after the addition of the compounds. The cells were then incubated at 37° C. for 5 h. The media in the wells were removed and the cells were then lysed in 30 µl of 1×Renilla luciferase lysis buffer (Promega, Madison, Wis.). To measure Renilla luciferase activity, five uL of the lysate was combined with 30 uI of benzyl-coelenterazine (Nanolight, Pinetop, Ariz.) solution in PBS (pH 7.4, 10 ug/mL). The sample protein concentration was determined by Dye Reagent Concentrate (Bio-Rad, Hercules, Calif). The Renilla luciferase activity was normalized to protein content in each well and expressed as relative luciferase unit/ug protein (RLU/ug protein). The IC50 was derived from non-linear regression analysis of the RLU/ug protein-concentration curve.

[2] = Mouse pharmacokinetics, plasma by LC-MS/MS; format: in vivo, mice (C57BL/6); details: female C57BL/6 mice
Method: The compound was formulated in an aqueous solution containing 5% Tween-80, 10% DMSO. Female mice (C57BL/6) were given a single dose of the formulation at 5 mg/kg (IV), 10 mg/kg (IP) and 20 mg/kg (orally). At different time points (0.083, 0.25, 0.5, 1, 2, 4, 8, 24 h) post drug administration, blood was collected and the plasma was prepared. The samples were stored at −80° C. until analysis. The drug concentration in the plasma was analyzed by LC-MS/MS.

HL-60 cells = experiment: AML xenograft model; format: in vivo; details: HL-60 xenograft in NSG mice, 2 mg/kg IV daily
Method: For AML xenograft mouse experiments, HL-60 cells (2×10^6) expressing firefly luciferase and GFP are injected through the tail vein into 4-6 week old NOD. Cg-Prkdc^acid Il2rg^tmlWjlSzJ (NSG) mice. Mice are then treated with 2 mg/kg SRS-1006 or 10% DMSO, injected intravenously by tail vein daily seven days after AML cell injection, until death or an endpoint is reached (moribundity) in accordance with the animal care institutional guidelines. Leukemia progression in mice at the indicated time points is monitored using an in vivo IVIS 100 bioluminescenceoptical imaging system (Xenogen Corporation). D-Luciferin (Promega) dissolved in sterile phosphate-buffered saline was injected intraperitoneally at a dose of […], 15 minutes before measuring the luminescent signal. General anesthesia is induced with […] and continued during the procedure using a nose cone. Analysis is performed on Living Image In Vivo imaging software (Perkin-Elmer). Bone marrow is aspirated from bone marrow cavities, and GFP+cells is sorted using the FACSCalibur flow cytometer (BD Biosciences).

NaLM6 = experiment: Cytotoxicity assay (Cell-titer-Glow, 72 hr); format: cell-based; details: Homo sapiens, NALM-6; leukemia cell line NaLM6, 72hr; read-out: IC50 for inhibition of NaLM6
Method: (§1) The cells were obtained from ATCC, IMDM was obtained from Lonza, and FBS was obtained from Hyclone. Cell-titer-Glow for cytotoxicity was from Promega. Sterile 96-well tissue culture plates were from Corning. Different concentrations of the test compounds were tested in triplicate wells of either 96-well or 384-well tissue culture plates. The screening was repeated two additional times. The cells from ATCC were thawed, washed once with complete media, and cultured in T75 flask in a 37C CO2 incubator. Cell density was maintained between 5×10 5 to 1×10^6 cells/ml. Compounds were individually weighed and dissolved in DMSO to obtain 10 mM solutions of each and stored at −20° C. until used. To select concentrations of the compounds for cytotoxicity, all the compounds were initially tested at 100 μM and 30 μM in a 48 hr cytotoxicity assay. Two microliter of each concentration of the test compounds were transferred into triplicate wells of a 96-well tissue culture plate. Into each well 100 μof the cell suspension was added, the plate was lidded and incubated at 37° C. in a 5% CO2 incubator maintained at 95% humidity After 72hr of incubation, the plate was removed from the incubator, and the cell viability was determined using Cell-titer-glow reagent as per the protocol described in the kit manual. Signals from the plate was measured using Victor-II plate reader. The raw data from the plate reader were exported to Excel. For each concentration of the drug tested the average signal and SD from the triplicate wells, as well as the percent cytotoxicity were calculated. The resulting data were exported to Prism-graph-pad, the % cytotoxicity was plotted against log concentration and the resulting curves were fitted using non-linear dose response fit and the resulting IC50 values were extracted.

Hep3B = experiment: Cytotoxicity assay (Cell-titer-Glow, 72 hr); format: cell-based; details: Homo sapiens, Hep3B cells, read-out: IC50 for inhibition of Hep3B
Method: as §1

BT-474 = experiment: Cytotoxicity assay (Cell-titer-Glow, 72 hr); format: cell-based; details: Homo sapiens; breast cancer line BT-474, 72hr; read-out: IC50 for inhibition of BT-474
Method: as §1

MiaPaCa2 = experiment: Cytotoxicity assay (Cell-titer-Glow, 72 hr); format: cell-based; details: Homo sapiens, MIA PaCa-2, MiaPaCa2 cells, read-out: IC50 for inhibition of MiaPaCa2
Method: as §1

KG-1 = experiment: Cytotoxicity assay (Cell-titer-Glow, 72 hr); format: cell-based; details: Homo sapiens; leukemia cell line KG-1, 72hr; read-out: IC50 for inhibition of KG-1
Method: as §1

MV-411 = experiment: Cytotoxicity assay (Cell-titer-Glow, 72 hr); format: cell-based; details: Homo sapiens, MV4-11; leukemia cell line MV-411, 72hr; read-out: IC50 for inhibition of MV-411
Method: as §1

A549 = experiment: Cytotoxicity assay (Cell-titer-Glow, 72 hr); format: cell-based; details: Homo sapiens, A549 cells, read-out: IC50 for inhibition of A549
Method: as §1

MCF-7 = experiment: Cytotoxicity assay (Cell-titer-Glow, 72 hr); format: cell-based; details: Homo sapiens, MCF7; breast cancer line MCF-7, 72hr; read-out: IC50 for inhibition of MCF-7
Method: as §1

HL-60 = experiment: Cytotoxicity assay (Cell-titer-Glow, 72 hr); format: cell-based; details: Homo sapiens; leukemia cell line HL-60, 72hr; read-out: IC50 for inhibition of HL-60
Method: as §1

Hs587T = experiment: Cytotoxicity assay (Cell-titer-Glow, 72 hr); format: cell-based; details: breast cancer line Hs587T, read-out: IC50 for inhibition of Hs587T
Method: as §1

[3] = in vivo; cited from earlier work

IC50 ([1]; Homo sapiens, HEK-293T): 1550 nM
SMILES: NCCCOc1cc2ccccc2cc1C(=O)NCCOc1cc2ccccc2cc1C(=O)Nc1ccc(Cl)cc1Cl [SRS-1005]

bioavailability ([2]; single dose 5 mg/kg IV, read-out: IV bioavailability): 100%
bioavailability ([2]; single dose 10 mg/kg IP, read-out: IP bioavailability): 100%
bioavailability ([2]; po, single dose 20 mg/kg orally, read-out: oral bioavailability): 67%
IC50 ([1]; Homo sapiens, HEK-293T): 180 nM
SMILES: Cl.NCCCOc1cc2ccccc2cc1C(=O)NCCOc1cc2ccccc2cc1C(=O)Nc1ccccc1F [SRS-1006]
median survival in Kaplan-Meier analysis (HL-60 cells): significantly prolonged
disease burden by bioluminescence imaging (HL-60 cells; compared to control): less disease burden
IC50 (NaLM6): 970 nM
IC50 (Hep3B): 1460 nM
IC50 (BT-474): 5210 nM
IC50 (MiaPaCa2): 1700 nM
IC50 (KG-1): 3390 nM
IC50 (MV-411): 990 nM
IC50 (A549): 1490 nM
IC50 (MCF-7): 1470 nM
IC50 (HL-60): 650 nM
IC50 (Hs587T): 3690 nM

IC50 [1]: 410 nM
IC50 ([1]; Homo sapiens, HEK-293T): 450 nM
SMILES: NCCCOc1cc2ccccc2cc1C(=O)NCCOc1cc2ccccc2cc1C(=O)Nc1c(F)cccc1F [SRS-1007]

More lines, now with the values behind:

SMILES: NCCCOc1cc2ccccc2cc1C(=O)NCCOc1cc2ccccc2cc1C(=O)Nc1ccccc1 [SRS-1001]
IC50 ([1]; Homo sapiens, HEK-293T): 1260 nM

SMILES: NCCCOc1cc2ccccc2cc1C(=O)NCCOc1cc2ccccc2cc1C(=O)Nc1ccc(Cl)cc1 [SRS-1002]
IC50 ([1]; Homo sapiens, HEK-293T): 1550 nM

SMILES: NCCCOc1cc2ccccc2cc1C(=O)NCCOc1cc2ccccc2cc1C(=O)Nc1ccc(F)cc1 [SRS-1003]
IC50 ([1]; Homo sapiens, HEK-293T): 410 nM

SMILES: N#Cc1ccc(NC(=O)c2cc3ccccc3cc2OCCNC(=O)c2cc3ccccc3cc2OCCCN)cc1 [SRS-1004]
IC50 ([1]; Homo sapiens, HEK-293T): 1200 nM

SMILES: O=C(Nc1ccc(Cl)cc1)c1cc2ccccc2cc1O [napththol AS-E, naphthol AS-E]
bioavailability [3]: low
